This note sets out measurements from patent US20090118332A1, “Therapeutic Agents - 551” (AstraZeneca AB, priority 2006, published 2009).

A word on the inhibition: it is the relative decrease from the control value, in per cent.

The target of this assay is T1, human Fatty Acid Synthase (Homo sapiens, UniProt P49327).
T1 construct: made in house
The experiment in a line: Human FAS enzyme assay (decrease in NADPH fluorescence). The assay is classed as biochemical. The conditions noted are these: for inhibition at 100 µM: % inhibition at a concentration of 100 μmolar; for IC50, inhibition of human Fatty Acid Synthase: FAS enzyme assay, IC50 from fitted sigmoid curves. The procedure, abridged: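 In-house human FAS was preincubated with compound and NADPH for 15 min at room temperature in 0.1 M Tris pH 7.5 with EDTA, glutathione and BSA. Malonyl CoA and acetyl CoA (500 μM and 150 μM in the added mix) were then added for 60 min. IC50 came from time-zero-subtracted NADPH fluorescence (340/460 nm).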

T1 sequence (P49327 whole entry): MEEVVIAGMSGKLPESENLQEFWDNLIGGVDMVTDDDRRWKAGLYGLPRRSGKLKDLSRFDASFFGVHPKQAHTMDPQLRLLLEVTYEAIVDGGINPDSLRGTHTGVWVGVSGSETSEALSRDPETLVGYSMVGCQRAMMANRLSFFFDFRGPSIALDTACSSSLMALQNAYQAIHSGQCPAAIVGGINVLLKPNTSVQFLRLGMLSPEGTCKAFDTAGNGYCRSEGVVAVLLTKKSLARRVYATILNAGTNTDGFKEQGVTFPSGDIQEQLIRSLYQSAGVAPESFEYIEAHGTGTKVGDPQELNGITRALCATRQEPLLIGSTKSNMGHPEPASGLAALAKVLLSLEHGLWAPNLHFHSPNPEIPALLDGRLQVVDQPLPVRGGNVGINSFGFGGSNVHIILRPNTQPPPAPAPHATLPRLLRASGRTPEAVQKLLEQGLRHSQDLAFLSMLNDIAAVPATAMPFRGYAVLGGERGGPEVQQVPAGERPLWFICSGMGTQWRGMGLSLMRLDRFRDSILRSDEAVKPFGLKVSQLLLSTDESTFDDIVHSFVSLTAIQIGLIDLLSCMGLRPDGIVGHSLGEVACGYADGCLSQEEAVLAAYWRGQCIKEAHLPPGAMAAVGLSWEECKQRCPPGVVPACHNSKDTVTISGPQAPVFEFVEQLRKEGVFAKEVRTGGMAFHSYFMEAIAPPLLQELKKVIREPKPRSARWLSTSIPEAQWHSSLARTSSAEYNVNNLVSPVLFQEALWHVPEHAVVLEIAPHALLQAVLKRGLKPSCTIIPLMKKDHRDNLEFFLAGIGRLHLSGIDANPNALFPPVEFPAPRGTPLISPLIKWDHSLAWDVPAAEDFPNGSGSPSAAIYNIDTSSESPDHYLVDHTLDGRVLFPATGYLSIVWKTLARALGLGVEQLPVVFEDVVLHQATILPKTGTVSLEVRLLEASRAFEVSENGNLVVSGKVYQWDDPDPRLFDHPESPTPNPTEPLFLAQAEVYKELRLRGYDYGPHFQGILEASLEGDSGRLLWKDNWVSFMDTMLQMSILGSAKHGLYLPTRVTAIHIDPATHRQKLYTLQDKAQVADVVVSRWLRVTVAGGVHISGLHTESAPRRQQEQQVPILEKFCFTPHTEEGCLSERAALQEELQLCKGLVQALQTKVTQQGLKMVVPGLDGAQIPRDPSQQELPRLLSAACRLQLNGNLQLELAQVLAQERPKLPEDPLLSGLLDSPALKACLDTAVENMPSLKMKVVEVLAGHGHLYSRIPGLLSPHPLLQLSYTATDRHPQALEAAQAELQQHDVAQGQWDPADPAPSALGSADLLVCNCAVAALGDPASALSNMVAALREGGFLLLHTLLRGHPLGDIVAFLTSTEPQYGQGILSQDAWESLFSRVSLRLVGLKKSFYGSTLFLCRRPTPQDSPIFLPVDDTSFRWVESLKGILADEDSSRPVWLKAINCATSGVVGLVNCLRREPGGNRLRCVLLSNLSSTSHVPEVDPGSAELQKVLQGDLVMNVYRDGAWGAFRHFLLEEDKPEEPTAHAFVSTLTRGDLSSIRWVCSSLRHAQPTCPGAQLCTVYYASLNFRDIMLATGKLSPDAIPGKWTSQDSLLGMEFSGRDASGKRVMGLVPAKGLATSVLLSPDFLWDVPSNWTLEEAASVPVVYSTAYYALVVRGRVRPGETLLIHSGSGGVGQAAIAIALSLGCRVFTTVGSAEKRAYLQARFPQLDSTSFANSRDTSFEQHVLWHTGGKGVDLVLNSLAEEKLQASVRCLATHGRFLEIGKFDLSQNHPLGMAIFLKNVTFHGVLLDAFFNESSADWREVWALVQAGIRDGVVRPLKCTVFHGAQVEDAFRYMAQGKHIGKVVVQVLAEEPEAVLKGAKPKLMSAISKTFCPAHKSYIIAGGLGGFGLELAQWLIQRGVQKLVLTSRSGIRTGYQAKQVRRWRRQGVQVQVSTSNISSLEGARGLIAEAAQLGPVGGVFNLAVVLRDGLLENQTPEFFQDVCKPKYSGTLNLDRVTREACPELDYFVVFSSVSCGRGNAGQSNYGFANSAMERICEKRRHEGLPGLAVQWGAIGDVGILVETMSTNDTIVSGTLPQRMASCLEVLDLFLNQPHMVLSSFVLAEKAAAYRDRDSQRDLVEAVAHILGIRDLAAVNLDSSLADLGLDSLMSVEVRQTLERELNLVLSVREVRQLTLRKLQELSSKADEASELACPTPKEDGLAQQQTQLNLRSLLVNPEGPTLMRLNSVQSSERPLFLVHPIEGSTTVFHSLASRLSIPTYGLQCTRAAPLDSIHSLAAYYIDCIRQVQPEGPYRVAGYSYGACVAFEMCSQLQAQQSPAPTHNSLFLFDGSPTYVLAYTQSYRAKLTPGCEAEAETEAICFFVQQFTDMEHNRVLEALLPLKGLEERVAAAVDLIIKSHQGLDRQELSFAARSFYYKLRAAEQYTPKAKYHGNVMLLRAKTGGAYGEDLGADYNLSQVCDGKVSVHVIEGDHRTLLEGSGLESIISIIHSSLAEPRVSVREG

For `Cc1ccc(C(=O)N2CCC(c3ccc(C#N)cc3)CC2)cc1NC(=O)NC(C)(C)C` [Example 31, 1-[5-[4-(4-cyanophenyl)piperidine-1-carbonyl]-2-methyl-phenyl]-3-tert-butyl-urea], the inhibition at 100 µM was determined as 83.3%.

In the case of `CCC(=O)N1CC[C@@H](NC(=O)Nc2cc(C(=O)N3CCC(c4ccc(C#N)cc4)CC3)ccc2C)C1` [Example 276, 3-[5-[4-(4-cyanophenyl)piperidine-1-carbonyl]-2-methyl-phenyl]-1-[(3R)-1-propanoylpyrrolidin-3-yl]urea], the inhibition at 100 µM stood at 98.2%.

`Cc1ccc(C(=O)N2CCC(c3ccc(C(F)(F)F)cc3)CC2)cc1NC(=O)NCCNS(C)(=O)=O` [Example 341, 3-(2-methanesulfonamidoethyl)-1-[2-methyl-5-[4-[4-(trifluoromethyl)phenyl]piperidine-1-carbonyl]phenyl]urea]: the inhibition at 100 µM turned out to be 95.4%.

Consider `Cc1cccc(CNC(=O)Nc2cc(C(=O)N3CCC(c4ccc(C#N)cc4)CC3)ccc2C)n1` [Example 249, 1-[5-[4-(4-cyanophenyl)piperidine-1-carbonyl]-2-methyl-phenyl]-3-[(6-methylpyridin-2-yl)methyl]urea], for which the inhibition at 100 µM is 84.2%.

As to `Cc1ccc(C(=O)N2CCC(c3cccc(C#N)c3)CC2)cc1NC(=O)NC(C)C` [Example 327, 1-[5-[4-(3-cyanophenyl)piperidine-1-carbonyl]-2-methyl-phenyl]-3-propan-2-yl-urea], the inhibition at 100 µM was 93.1%.

In the case of `Cc1ccc(NC(=O)N[C@H](C)c2ccccc2)cc1C(=O)N1CCC(c2ccc(C#N)cc2)CC1` [Example 37, 3-[3-[4-(4-cyanophenyl)piperidine-1-carbonyl]-4-methyl-phenyl]-1-[(1R)-1-phenylethyl]urea], the inhibition at 100 µM came to 74.3%.

Turning to `Cc1ccc(NC(=O)NC(C)C)cc1C(=O)N1CCC(c2ccc(C#N)cc2)CC1` [Example 404, 1-[3-[4-(4-cyanophenyl)piperidine-1-carbonyl]-4-methylphenyl]-3-propan-2-ylurea], the inhibition at 100 µM turned out to be 76.5%.

As to `CCOC(=O)N1CCC(NC(=O)Nc2cc(C(=O)N3CCC(c4ccc(C#N)cc4)CC3)ccc2C)CC1` [Example 132, ethyl 4-[[5-[4-(4-cyanophenyl)piperidine-1-carbonyl]-2-methyl-phenyl]carbamoylamino]piperidine-1-carboxylate], the inhibition at 100 µM worked out at 89.5%.

For the compound `CCS(=O)(=O)NCCCNC(=O)Nc1cc(C(=O)N2CCC(c3ccc(C#N)cc3)CC2)ccc1C` [Example 216, 3-[5-[4-(4-cyanophenyl)piperidine-1-carbonyl]-2-methyl-phenyl]-1-[3-(ethylsulfonylamino)propyl]urea], the inhibition at 100 µM was 92.4%.

As for `Cc1ccc(C(=O)N2CCC(c3cccc(Cl)c3)CC2)cc1NC(=O)NC(C)C` [1-[5-[4-(3-chlorophenyl)piperidine-1-carbonyl]-2-methylphenyl]-3-propan-2-ylurea], the “IC50, inhibition of human Fatty Acid Synthase” value (shortened to “IC50, inhibition”) is “do not have IC50s in the range of about 0.001 μM to about 30 μM”.

`Cc1ccc(C(=O)N2CCC(c3ccc(C#N)cc3)CC2)cc1NC(=O)NCC(C)(C)CO` [Example 188, 1-[5-[4-(4-cyanophenyl)piperidine-1-carbonyl]-2-methyl-phenyl]-3-(3-hydroxy-2,2-dimethyl-propyl)urea]: the inhibition at 100 µM was found to be 89%.

For `CC(=O)NC1CN(C(=O)Nc2cc(C(=O)N3CCC(c4ccc(C#N)cc4)CC3)ccc2C)C1` [Example 312, 3-acetamido-N-[5-[4-(4-cyanophenyl)piperidine-1-carbonyl]-2-methyl-phenyl]azetidine-1-carboxamide], the inhibition at 100 µM worked out at 88.8%.

As for `Cc1csc(CNC(=O)Nc2cc(C(=O)N3CCC(c4ccc(C#N)cc4)CC3)ccc2C)n1` [Example 264, 1-[5-[4-(4-cyanophenyl)piperidine-1-carbonyl]-2-methyl-phenyl]-3-[(4-methyl-1,3-thiazol-2-yl)methyl]urea], the inhibition at 100 µM was found to be 90.1%.

Turning to `CCCN(C(=O)Nc1cc(C(=O)N2CCC(c3ccc(C#N)cc3)CC2)ccc1C)C1CCS(=O)(=O)C1` (stereo not drawn) [Example 397, 3-[5-[4-(4-cyanophenyl)piperidine-1-carbonyl]-2-methylphenyl]-1-(1,1-dioxothiolan-3-yl)-1-propylurea], the inhibition at 100 µM came out at 63.7%.

Turning to `Cc1ccc(C(=O)N2CCC(c3ccc(C#N)cc3)CC2)cc1NC(=O)NCC(O)CO` (stereo not drawn) [Example 184, 1-[5-[4-(4-cyanophenyl)piperidine-1-carbonyl]-2-methyl-phenyl]-3-(2,3-dihydroxypropyl)urea], the inhibition at 100 µM amounted to 81.7%.

As for `C#CC(C)(C)NC(=O)Nc1cc(C(=O)N2CCC(c3ccc(C#N)cc3)CC2)ccc1C` [Example 384, 1-[5-[4-(4-cyanophenyl)piperidine-1-carbonyl]-2-methylphenyl]-3-(2-methylbut-3-yn-2-yl)urea], the inhibition at 100 µM is 97.6%.

In the case of `CCCCNC(=O)Nc1cc(C(=O)N2CCC(c3ccc(C#N)cc3)CC2)ccc1C` [Example 1, 1-butyl-3-[5-[4-(4-cyanophenyl)piperidine-1-carbonyl]-2-methyl-phenyl]urea], the inhibition at 100 µM was 95.6%.

For `Cc1ccc(C(=O)N2CCC(c3ccc(C#N)cc3)CC2)cc1NC(=O)NCCCN1CCCCCC1=O` [Example 178, 1-[5-[4-(4-cyanophenyl)piperidine-1-carbonyl]-2-methyl-phenyl]-3-[3-(2-oxoazepan-1-yl)propyl]urea], the inhibition at 100 µM stood at 95.9%.

On to `Cc1ccc(C(=O)N2CCC(c3ccc(C#N)cc3)CC2)cc1NC(=O)NCCc1ccncc1` [Example 62, 1-[5-[4-(4-cyanophenyl)piperidine-1-carbonyl]-2-methyl-phenyl]-3-(2-pyridin-4-ylethyl)urea], for which the inhibition at 100 µM stood at 101%.

`COC(=O)[C@@H](NC(=O)Nc1cc(C(=O)N2CCC(c3ccc(C#N)cc3)CC2)ccc1C)c1ccccc1` [Methyl (2S)-2-[[5-[4-(4-cyanophenyl)piperidine-1-carbonyl]-2-methylphenyl]carbamoylamino]-2-phenylacetate]: the “IC50, inhibition” value is reported as “do not have IC50s in the range of about 0.001 μM to about 30 μM”.

As for `C#CCNC(=O)Nc1cc(C(=O)N2CCC(c3ccc(C#N)cc3)CC2)ccc1C` [Example 43, 1-[5-[4-(4-cyanophenyl)piperidine-1-carbonyl]-2-methyl-phenyl]-3-prop-2-ynyl-urea], the inhibition at 100 µM stood at 88.3%.

Take `COCCNC(=O)Nc1ccc(C)c(C(=O)N2CCC(c3ccc(C#N)cc3)CC2)c1` [Example 417, 1-[3-[4-(4-cyanophenyl)piperidine-1-carbonyl]-4-methylphenyl]-3-(2-methoxyethyl)urea]: the inhibition at 100 µM turned out to be 85.1%.

Take `Cc1ccc(NC(=O)N[C@H]2CC[C@@H](O)CC2)cc1C(=O)N1CCC(c2ccc(C#N)cc2)CC1` [Example 48, 1-[3-[4-(4-cyanophenyl)piperidine-1-carbonyl]-4-methyl-phenyl]-3-cis-(4-hydroxycyclohexyl)urea]: the inhibition at 100 µM was 93.7%.

For the compound `Cc1ccc(C(=O)N2CCC(c3ccc(C#N)cc3)CC2)cc1NC(=O)NC(C)(C)CNC(=O)c1cccnc1` [Example 93, N-[2-[[5-[4-(4-cyanophenyl)piperidine-1-carbonyl]-2-methyl-phenyl]carbamoylamino]-2-methyl-propyl]pyridine-3-carboxamide], the inhibition at 100 µM worked out at 90.1%.

In the case of `Cc1ccc(C(=O)N2CCC(O)(c3ccc(Br)cc3)CC2)cc1NC(=O)NCc1ccccc1` [Example 40, 3-benzyl-1-[5-[4-(4-bromophenyl)-4-hydroxy-piperidine-1-carbonyl]-2-methyl-phenyl]urea], the inhibition at 100 µM was 71.5%.

As to `Cc1ccc(C(=O)N2CCC(c3ccc(C#N)cc3)CC2)cc1NC(=O)NCC1CCOCC1` [Example 17, 1-[5-[4-(4-cyanophenyl)piperidine-1-carbonyl]-2-methyl-phenyl]-3-(oxan-4-ylmethyl)urea], the inhibition at 100 µM came to 90.1%.

For `Cc1ccc(C(=O)N2CCC(c3ccc(C#N)cc3)CC2)cc1NC(=O)NC(C(=O)O)C(C)C` (stereo not drawn) [Example 371, 2-[[5-[4-(4-cyanophenyl)piperidine-1-carbonyl]-2-methylphenyl]carbamoylamino]-3-methylbutanoic acid], the inhibition at 100 µM was 79%.

In the case of `Cc1ccc(C(=O)N2CCC(c3ccc(C#N)cc3)CC2)cc1NC(=O)NCCN(C)S(=O)(=O)C(C)C` [Example 214, 1-[5-[4-(4-cyanophenyl)piperidine-1-carbonyl]-2-methyl-phenyl]-3-[2-(methyl-propan-2-ylsulfonyl-amino)ethyl]urea], the inhibition at 100 µM stood at 89.8%.

Turning to `Cc1cc(C)c(C(=O)N2CCC(c3ccc(C#N)cc3)CC2)cc1NC(=O)NC1CC1` [Example 411, 1-[5-[4-(4-cyanophenyl)piperidine-1-carbonyl]-2,4-dimethylphenyl]-3-cyclopropylurea], the inhibition at 100 µM came to 90%.

`Cc1ccc(C(=O)N2CCC(c3ccc(C#N)cc3)CC2)cc1NC(=O)NCCCN1CCCC1` [Example 74, 1-[5-[4-(4-cyanophenyl)piperidine-1-carbonyl]-2-methyl-phenyl]-3-(3-pyrrolidin-1-ylpropyl)urea]: the inhibition at 100 µM was determined as 89.6%.

For `COCCOCCCNC(=O)Nc1cc(C(=O)N2CCC(c3ccc(C#N)cc3)CC2)ccc1C` [Example 161, 1-[5-[4-(4-cyanophenyl)piperidine-1-carbonyl]-2-methyl-phenyl]-3-[3-(2-methoxyethoxy)propyl]urea], the inhibition at 100 µM is 93.7%.

In the case of `Cc1ccc(C(=O)N2CCC(c3ccc(C#N)cc3)CC2)cc1NC(=O)N(C)C(C)(C)C#N` [3-[5-[4-(4-cyanophenyl)piperidine-1-carbonyl]-2-methylphenyl]-1-(2-cyanopropan-2-yl)-1-methylurea], the “IC50, inhibition” value was “do not have IC50s in the range of about 0.001 μM to about 30 μM”.

Consider `CCC(CC)NC(=O)Nc1cc(C(=O)N2CCC(c3ccc(C#N)cc3)CC2)ccc1C` [Example 53, 3-[5-[4-(4-cyanophenyl)piperidine-1-carbonyl]-2-methyl-phenyl]-1-pentan-3-yl-urea], for which the inhibition at 100 µM amounted to 90.8%.
